Results reported in article PMC13288968 (ACS chemical neuroscience, 2026).
Several values for one entry are separate records, joined by “and”; a condition that tells them apart may be missing. Equal entries are not always repeated.

T1: ΔFOSB/JUND bZIP redox switch (ΔFOSB Cys172/JUND Cys285) (Mus musculus, UniProt P13346)
T1 sequence (P13346 153-219 isoform P13346-2): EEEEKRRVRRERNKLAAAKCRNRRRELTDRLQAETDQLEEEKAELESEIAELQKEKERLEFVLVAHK
T1 sequence (P15066 260-326 partner limits assumed): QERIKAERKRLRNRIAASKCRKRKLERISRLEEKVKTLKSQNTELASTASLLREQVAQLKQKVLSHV

T2: ΔFOSB bound to genomic DNA in hippocampus of APP mice (Mus musculus, UniProt P13346)
T2 sequence (P13346 1-237 isoform P13346-2): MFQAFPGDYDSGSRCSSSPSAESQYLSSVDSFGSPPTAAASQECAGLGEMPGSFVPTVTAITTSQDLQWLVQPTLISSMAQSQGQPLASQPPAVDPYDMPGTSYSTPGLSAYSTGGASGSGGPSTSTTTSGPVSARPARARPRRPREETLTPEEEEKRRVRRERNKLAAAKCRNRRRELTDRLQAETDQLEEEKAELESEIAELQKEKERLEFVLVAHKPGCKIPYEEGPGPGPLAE

T3: ΔFOSB homomer (full-length) (mouse, UniProt P13346-2 2-237)
T3 sequence: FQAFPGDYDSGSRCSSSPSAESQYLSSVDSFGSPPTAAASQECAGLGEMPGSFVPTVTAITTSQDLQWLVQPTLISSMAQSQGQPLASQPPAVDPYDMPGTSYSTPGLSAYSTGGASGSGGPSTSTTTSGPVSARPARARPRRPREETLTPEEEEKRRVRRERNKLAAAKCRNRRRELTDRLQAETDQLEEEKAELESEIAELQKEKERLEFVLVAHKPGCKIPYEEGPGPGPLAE

T4: ΔFOSB (full-length);JUND (full-length) (mouse;mouse, UniProt P13346-2;P15066 2-237;2-341, |)
T4 sequence 1: T3 sequence
T4 sequence 2: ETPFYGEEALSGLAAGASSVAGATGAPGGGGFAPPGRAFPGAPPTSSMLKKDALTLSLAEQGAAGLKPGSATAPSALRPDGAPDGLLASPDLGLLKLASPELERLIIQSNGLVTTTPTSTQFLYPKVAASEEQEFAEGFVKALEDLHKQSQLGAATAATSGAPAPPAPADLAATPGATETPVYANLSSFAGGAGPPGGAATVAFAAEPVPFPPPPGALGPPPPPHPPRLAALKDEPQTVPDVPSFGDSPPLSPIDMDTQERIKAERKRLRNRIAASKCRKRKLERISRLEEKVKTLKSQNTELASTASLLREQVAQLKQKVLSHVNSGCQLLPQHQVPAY

B1: TMR-cdk5 (cdk5 oligo) (dsDNA)
DNA 1: CGTCGGTGACTCAAAACAC
DNA 2: GTGTTTTGAGTCACCGACG

Key:
[1] = target: T1, ΔFOSB/JUND bZIP redox switch (ΔFOSB Cys172/JUND Cys285); experiment: Redox switch closure of ΔFOSB/JUND bZIP assessed by non-reducing SDS-PAGE; type: biochemical
[2] = target: T2, ΔFOSB bound to genomic DNA in hippocampus of APP mice; conditions: three days into the dorsal hippocampus of APP mice; cited from earlier work
[3] = target: T3, ΔFOSB homomer (full-length); experiment: fluorescence polarization
[4] = target: T4, ΔFOSB (full-length);JUND (full-length); experiment: fluorescence polarization

Molecule | effect on closure of the redox switch under oxidation ([1]; 500 μM compound, 100 μM diamide, non-reducing SDS-PAGE) | promotion of oxidation / redox switch closure by compound alone ([1]; 0.5 mM compound, no diamide, SDS-PAGE) | reduction in number of ΔFOSB-bound AP-1 sites (CUT&RUN) [2] | binding result [3] | binding result [4]
NC1=NN(c2ccc(Oc3ccccc3)c(S(=O)(=O)O)c2)C(=O)C1 [JPC0661] | None of the three compounds (YL0441, JPC0661, and QB0365) prevented closure of the redox switch | did not oxidize the protein to induce closure of the redox switch | 60% and ~ 60% | – | –
B1 | – | – | – | binds | binds
